Experimental data published in patent US10799545B2, “Transdermal delivery of cannabidiol with other active moieties including cannabinoids” (LIFE TECH GLOBAL, LLC, priority 2016, dated 2020).
“Also recorded” adds a separate entry of the source.

Legend:
[1] = Franz Diffusion Cell, CBD flux from reservoir transdermal device through human cadaver epidermis; format: in vitro ADME
Method: The effects of using a hydrophobic, porous membrane versus a hydrophilic, porous membrane (such as membrane 24) in reservoir transdermal device 20 are studied in this example. A mixture is formed by dissolving CBD powder in ethanol to yield a solution comprising 10 percent by weight CBD and 90 percent by weight ethanol. The backing 22 is an occlusive backing film (PE/PET from 3M). Hydroxy ethyl cellulose is added to the solution to yield a thixotropic preparation 27. A volume of 300 μL of the preparation is placed in the reservoir 26.
The skin adhesive 30 is a BIO PSA 7-4301 adhesive coated to a thickness of 15 g/m^2 on side 36 of membrane 24. An overlay adhesive patch is placed over the reservoir which forms an island in the middle. The overlay assures adhesion of the reservoir to the skin. The device 20 is contacted with a human cadaver epidermis, and diffusion through the epidermis is measured using the Franz Diffusion Cell method.
In a first run, membrane 24 is a Lydall® Evopor™ 5E02A, hydrophilic, microporous membrane (of 0.2 μm pore size). In a second run, the device 20 is constructed similarly, but membrane 24 is a hydrophobic Lydall® Solupor™ 7P03A porous membrane.
The reservoir device 20 of Example 1 is used, but instead of using ethanol alone as the liquid carrier, a mixture of ethanol and water is used wherein the ethanol comprises 70 percent by weight of the ethanol/water mixture, and water comprises 30 percent by weight of the ethanol/water mixture. The amount of CBD by weight of the combination of CBD and ethanol/water is 5 percent, and the amount of ethanol/water is 91.5 percent. The gelling agent is hydroxyethylcellulose, which is present in an amount of about 3.5% by weight of the preparation 27. […]
The device 20 is contacted with a human cadaver epidermis, and diffusion through the epidermis is measured using the Franz Diffusion Cell method. In a first run, the hydrophilic, porous membrane 24 of Example 1 is used. In a second run, the membrane 24 is omitted so that CBD diffuses directly through the skin adhesive 30.
This example is conducted using three reservoir transdermal devices such as those of Example 1, with each having the hydrophilic, porous membrane described therein. In each case, the preparation includes a mixture of CBD and a liquid carrier with ten (10) percent CBD by weight of the CBD/liquid carrier mixture. Three runs are conducted, each with a device that includes a different liquid carrier in its preparation 27: 1, 2 propylene glycol, PEG-300, and oleic acid. Diffusion through a human cadaver epidermis is measured using the Franz Diffusion Method.
This example is similar to Example 3, except that an ethanol carrier is also tested. As stated above, FIG. 6 is a graph depicting the cumulative flux (μg/cm^2) of CBD through a human cadaver epidermis over a six hour period from solutions comprising ten (10) percent by weight CBD and 90 percent by weight of one of four liquid carriers.

[2] = Franz Diffusion Cell, CBD flux from monolithic adhesive patch through human cadaver skin; format: in vitro ADME; settings: monolithic patches: Vistanex LM 5% or 10% CBD, DuroTak 87-2516 10% CBD, BIO PSA 7-4302 5% CBD (FIG. 7)
Method: Formulations of monolithic patches were prepared by solubilizing CBD in different adhesives and CBD transdermal flux was performed through human cadaver skin using Franz Diffusion Cell method. We found the highest transdermal flux of CBD from a formulation that comprises PIB adhesive and 10% CBD.
A monolithic transdermal device 40 is constructed using a matrix 44 of pure CBD and three different adhesives. A first device 40 includes a PE/PET backing and a matrix 44 comprising 95 percent Vistanex) LM polyisobutylene adhesive by weight of matrix 44 mixed with 5 percent substantially pure CBD by weight of matrix 44. A second device is similarly constructed, but the amount of CBD in the matrix 44 is 10 percent by weight of the matrix 44, and the amount of Vistanex LM is 90 percent by weight of the matrix 44. A third patch is constructed using a DuroTak 87-2516 adhesive in an amount of 90 percent by weight of matrix 44 and 10 percent CBD by weight of matrix 44, and a fourth patch is constructed using a BIO PSA 7-4302 adhesive in an amount of 95 percent by weight of matrix 44 and 5 percent CBD by weight of matrix 44.

[3] = 10% CBD / 90% liquid carrier, six hour period (FIG. 6)

C=C(C)[C@@H]1CCC(C)=C[C@H]1c1c(O)cc(CCCCC)cc1O [CBD, Cannabidiol]
permeability of CBD through the skin, with versus without membrane 24 ([1]; 5% CBD in ethanol/water 70/30, hydrophilic porous membrane used or omitted (FIG. 4)): the same
cumulative flux of CBD, hydrophilic membrane device versus hydrophobic membrane device ([1]; 10% CBD / 90% ethanol, hydrophilic Evopor 5E02A membrane, after about 9 hours (FIG. 3)): significantly exceeds
rate of transfer of CBD through the skin, oleic acid versus 1,2 propylene glycol or PEG-300 ([1]; 10% CBD / 90% liquid carrier, hydrophilic membrane, six hour period (FIG. 5)): significantly better
transfer of CBD through the skin, ethanol relative to 1,2 propylene glycol and PEG-300 [1, 3]: superior
transfer of CBD through the skin, oleic acid relative to ethanol, 1,2 propylene glycol and PEG-300 [1, 3]: superior
expected daily dose, reservoir device relative to monolithic patch of the same skin contact area ([1]; 20 cm^2 skin contact area): six times higher
cumulative flux of cannabidiol (CBD) ([1]; reservoir device, 5% by weight CBD and 70% by weight ethanol liquid carrier, at 12 hours): 110 micrograms/cm^2
cumulative flux of cannabidiol (CBD) ([1]; reservoir device, 5% by weight CBD and 70% by weight ethanol liquid carrier, at 24 hours): 300 micrograms/cm^2
cumulative flux of CBD, asymptotic value ([1]; reservoir device, 10% CBD / 90% ethanol, hydrophobic Solupor 7P03A porous membrane (FIG. 3)): about 300 μg/cm^2
cumulative flux of cannabidiol (CBD) ([1]; reservoir device, 10% by weight CBD and 90% by weight ethanol liquid carrier, hydrophilic porous membrane, at 7 hours): 150 micrograms/cm^2
cumulative flux of cannabidiol (CBD) ([1]; reservoir device, 10% by weight CBD and 90% by weight ethanol liquid carrier, hydrophilic porous membrane, at 17 hours): 700 micrograms/cm^2
cumulative flux of cannabidiol (CBD) ([1]; reservoir device, 10% by weight CBD and 90% by weight oleic acid, over six hours): 180 micrograms/cm^2
cumulative flux of cannabidiol (CBD) ([1]; reservoir device, ethanol liquid carrier, over 6 hours): 70 micrograms/cm^2
transdermal delivery of CBD from saturated ethanol solution versus monolithic patch ([1]; reservoir patch formulation): significantly higher
transdermal flux of CBD, PIB (Vistanex LM) adhesive / 10% CBD relative to the other monolithic formulations [2]: superior; also recorded: highest
